Where “and” joins values, the source holds several entries; their conditions need not be identical. Equal values may be shown once. Read-outs that look alike come from different tables or passages of the source.
What was measured:
[1] = test system: mobilized peripheral blood CD34+ cells; test: CD34+ hematopoietic stem/progenitor cell expansion (CD34+ frequency and number), Example 9; format: cell-based; details: dose response beginning at 10 pM, day 7, flow cytometry
Procedure: To determine the activity of a scale-up batch of Compound (24), individual enantiomers, and two derivatives Compound (27) and Compound (28) were evaluated for i) the ability to expand CD34+ hematopoietic stem/progenitor cells and ii) AHR antagonist activity. The compounds were compared to control AHR antagonist SR1, an additional control AHR antagonist, and stored sample of Compound (24) CD34+ Frequency and Number
Methods—mobilized peripheral blood CD34+ cells were cultured in the presence of compound, in dose response beginning at 10 pM. CD34+ cell frequency and number was assessed at day 7 by flow cytometry. All synthesized compounds show equivalent expansion capabilities if not greater than SR1.

AHR = molecular target: T1, AHR (Homo sapiens, UniProt P35869); test: AHR antagonist assay, HepG2 cells transiently transfected with pGudLuc6.1 luciferase plasmid, Example 9; format: cell-based; details: luciferase activity 24 hours post-culture
T1 construct: HepG2 cells transiently transfected with the pGudLuc6.1 plasmid were thawed and 25,000 cells were plated per well; endogenous in cells; host or cells: HepG2
T1 sequence (P35869 11-848): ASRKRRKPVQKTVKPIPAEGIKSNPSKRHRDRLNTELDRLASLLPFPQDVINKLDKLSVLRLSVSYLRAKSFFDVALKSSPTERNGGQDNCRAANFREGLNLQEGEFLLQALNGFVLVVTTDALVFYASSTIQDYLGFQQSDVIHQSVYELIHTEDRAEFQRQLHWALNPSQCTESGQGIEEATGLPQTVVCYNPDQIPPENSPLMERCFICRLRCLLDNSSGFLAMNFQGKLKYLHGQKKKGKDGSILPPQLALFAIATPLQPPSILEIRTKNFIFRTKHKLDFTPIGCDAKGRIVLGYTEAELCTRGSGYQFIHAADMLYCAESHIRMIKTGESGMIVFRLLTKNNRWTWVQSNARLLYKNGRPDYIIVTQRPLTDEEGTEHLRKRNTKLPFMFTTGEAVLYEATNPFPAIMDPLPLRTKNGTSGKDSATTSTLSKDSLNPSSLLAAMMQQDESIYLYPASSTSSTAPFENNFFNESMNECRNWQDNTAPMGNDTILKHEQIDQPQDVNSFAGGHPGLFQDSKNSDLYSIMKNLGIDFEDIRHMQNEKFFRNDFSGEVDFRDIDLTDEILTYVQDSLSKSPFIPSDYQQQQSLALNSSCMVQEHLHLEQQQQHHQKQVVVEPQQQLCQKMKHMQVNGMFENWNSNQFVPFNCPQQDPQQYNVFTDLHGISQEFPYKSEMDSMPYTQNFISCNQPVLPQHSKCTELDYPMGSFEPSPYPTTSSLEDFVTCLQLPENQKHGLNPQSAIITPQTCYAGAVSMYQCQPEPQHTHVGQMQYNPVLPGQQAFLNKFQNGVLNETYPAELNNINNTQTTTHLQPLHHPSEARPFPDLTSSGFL
Procedure: Methods—HepG2 cells transiently transfected with the pGudLuc6.1 plasmid were thawed and 25,000 cells were plated per well and immediately treated the AHR agonist VAF347 (fixed at 40 nM) and/or the indicated AHR antagonists. Luciferase activity was measured 24 hours post-culture, corresponding to endogenous AHR antagonist activity (without VAF347, FIG. 14) or in the presence of VAF347 (FIG. 15). All synthesized compounds show equivalent AHR antagonist activity if not greater than SR1.

[2] = molecular target: T2, aryl hydrocarbon receptor (Homo sapiens, UniProt P35869); test: Aryl hydrocarbon receptor-driven luciferase reporter in transiently transfected HepG2 cells, Example 3; format: cell-based; details: absence or presence of VAF347 (80 nM); six hours after plating
T2 construct: HepG2 cells transiently transfected with the pGudLuc6.1 plasmid were thawed and 25,000 cells were plated per well; endogenous in cells; host or cells: HepG2
T2 sequence (P35869 11-848): T1 sequence (P35869 11-848)
Procedure: To determine the ability of compounds (5) and (16) to inhibit the activity of the aryl hydrocarbon receptor and to induce the proliferation of hematopoietic stem cells, a series of HSC expansion experiments were conducted. In the first experiment, compounds (5) and (16) were assessed for their capacity to attenuate aryl hydrocarbon receptor signaling. To this end, HepG2 hepatocytes were transiently transfected with a luciferase reporter construct under the control of a promoter responsive to aryl hydrocarbon receptor signal transduction. The cells were plated at a density of 25,000 cells per well in a microtiter plate. The HepG2 cells were immediately treated with compound (5) or (16) in the absence (FIG. 1) or presence (FIG. 2) of the aryl hydrocarbon receptor agonist, VAF347 (80 nM). Luciferase activity was subsequently analyzed six hours after plating.

[3] = test system: mononuclear peripheral blood cells enriched in CD34+ cells; test: Proliferation of hematopoietic stem cells, percentage of CD34+ cells after seven days, Example 3; format: cell-based; details: for potency of hematopoietic stem cell expansion compared with SR1: compared with potency reported for SR1; for hematopoietic stem cell growth (percentage of CD34+ cells): seven days following plating
Procedure: To assess the ability of compounds (5) and (16) to induce the proliferation of hematopoietic stem cells, a population of mononuclear peripheral blood cells enriched in CD34+ cells were plated at a density of 2,350 cells per well (50 μL) in a microtiter plate in the presence of each compound. The percentage of CD34+ hematopoietic stem cells was assessed seven days following the initial plating. […] The compounds of formula (I) and (II) described herein can thus be used to expand hematopoietic stem cells ex vivo in order to obtain sufficient quantities of such cells for in vivo applications.

NSG mice = test: Transplantation into NSG mice of human hematopoietic stem cells expanded ex vivo with AHR antagonist; blood chimerism and brain microglia engraftment, Example 5; format: in vivo; details: NSG mice transplanted with cord blood CD34+ cells expanded 10 days with 500 nM AHR antagonist
Procedure: To investigate the ability of hematopoietic stem cells to differentiate into microglial cells and subsequently engraft in central nervous system tissue, such as the brain of a hematopoietic stem cell transplant recipient, a series of experiments were conducted in which human hematopoietic stem cells were first expanded ex vivo in the presence of an aryl hydrocarbon receptor antagonist (compound (16) or compound (24)) and were subsequently transplanted into NSG mice, in accordance with the scheme shown in FIG. 4. The frequency of human CD45+ cells in the peripheral blood of the mice was then determined, as well as the profile of microglial cells in the brain tissue using flow cytometry and immunohistochemistry techniques. […]
At the time of thaw, an equal number of cells to the starting cell cultures were injected into NSG mice, sublethally irradiated (200 cGy) 24 hours prior to injection. […] Peripheral blood was harvested by retro-orbital bleeding at approximately weeks 4 and 8 or by cardiac puncture at week 12 and chimerism was assessed by flow cytometry using antibodies against hCD45, mCD45, hCD33, hCD19, hCD3 and a viability dye. […]
Embedded brains were sectioned at approximately 5 microns and stained with Ku80 (brown) and Iba-1 (red) primary antibodies). Mouse brains were analyzed from each transplanted mouse and five levels were analyzed each. […]

[4] = VAF347 fixed at 40 nM, read-out: AHR Antagonist Activity in the Presence of VAF347 EC50
[5] = without VAF347, read-out: Endogenous AHR Antagonist Activity EC50

Row | Compound | EC50 [1] [nM] | EC50 (AHR; [4]) | EC50 (AHR; [5]) [nM] | EC50 ([1]; 168 h) [nM] | suppression of aryl hydrocarbon receptor activity (luciferase) [2] | potency of hematopoietic stem cell expansion compared with SR1 [3] | hematopoietic stem cell growth (percentage of CD34+ cells) [3] | frequency of hCD45+ cells in peripheral blood (NSG mice) | engraftment of hCD45+CD11b+ microglial cells in the brain (NSG mice; brains at 3 months)
1 | CC(C)n1cnc2c(NCCc3ccc(O)cc3)nc(-c3csc4ccccc34)nc21 [SR1, reference compound] | 112 | 193 nM | 33 |  |  |  |  |  | 
2 | COCCCC(C)c1cnc2c(NCCc3c[nH]c4ccccc34)nc(-c3cncc(F)c3)cn12 (centres unmarked) [Compound (27), 6-(5-fluoropyridin-3-yl)-N-[2-(1H-indol-3-yl)ethyl]-3-(4-methoxy-1-methylbutyl)imidazo[1,2-a]pyrazin-8-amine] |  | 9 nM | 2 | 8 |  |  |  |  | 
3 | CCC(C)c1cnc2c(NCCc3c[nH]c4ccccc34)nc(-c3cncc(F)c3)cn12 (centres unmarked) [Compound (16)] |  |  |  |  | capable of suppressing aryl hydrocarbon receptor activity even in the presence of the activator VAF347 | potency greater than that reported for StemRegeninl (SR1) | capable of potentiating hematopoietic stem cell growth in a dose-dependent manner | increased frequency of hCD45+ cells in peripheral blood | increased engraftment of hCD45+CD11b+ microglial cells in the brain
4 | CCOCCC(C)c1cnc2c(NCCc3c[nH]c4ccccc34)nc(-c3cncc(F)c3)cn12 (centres unmarked) [Compound (28), 3-(3-ethoxy-1-methylpropyl)-6-(5-fluoropyridin-3-yl)-N-[2-(1H-indol-3-yl)ethyl]imidazo[1,2-a]pyrazin-8-amine] |  | 30 nM | 2 | 10 |  |  |  |  | 
5 | CCC(C)c1cnc2c(NCCc3c[nH]c4ccccc34)cc(-c3cncc(F)c3)cn12 (centres unmarked) [Compound (5)] |  |  |  |  | capable of suppressing aryl hydrocarbon receptor activity even in the presence of the activator VAF347 | potency greater than that reported for StemRegeninl (SR1) | capable of potentiating hematopoietic stem cell growth in a dose-dependent manner |  | 

Continued by falling EC50 (AHR; [5]), values first:

Row | EC50 [1] [nM] | EC50 (AHR; [4]) | EC50 (AHR; [5]) [nM] | EC50 ([1]; 168 h) [nM] | Compound | suppression of aryl hydrocarbon receptor activity (luciferase) [2] | potency of hematopoietic stem cell expansion compared with SR1 [3] | hematopoietic stem cell growth (percentage of CD34+ cells) [3] | frequency of hCD45+ cells in peripheral blood (NSG mice) | engraftment of hCD45+CD11b+ microglial cells in the brain (NSG mice; brains at 3 months)
6 | 11 | 12 nM | 1 |  | COCCC(C)c1cnc2c(NCCc3c[nH]c4ccccc34)nc(-c3cncc(F)c3)cn12 (single isomer, unassigned) [Compound (24) - Enantiomer Peak 1, 6-(5-fluoropyridin-3-yl)-N-[2-(1H-indol-3-yl)ethyl]-3-(3-methoxy-1-methylpropyl)imidazo[1,2-a]pyrazin-8-amine] |  |  |  |  | 
7 |  | 13 nM and 11 nM | 1 | 7 | COCCC(C)c1cnc2c(NCCc3c[nH]c4ccccc34)nc(-c3cncc(F)c3)cn12 (racemic) [Compound (24), 6-(5-fluoropyridin-3-yl)-N-[2-(1H-indol-3-yl)ethyl]-3-(3-methoxy-1-methylpropyl)imidazo[1,2-a]pyrazin-8-amine] |  |  |  |  | 
8 | 4 | 6 nM | 0.4 |  | COCCC(C)c1cnc2c(NCCc3c[nH]c4ccccc34)nc(-c3cncc(F)c3)cn12 (single isomer, unassigned) [Compound (24) - Enantiomer Peak 2, 6-(5-fluoropyridin-3-yl)-N-[2-(1H-indol-3-yl)ethyl]-3-(3-methoxy-1-methylpropyl)imidazo[1,2-a]pyrazin-8-amine] |  |  |  |  | 
